In the NIST ThermoML archive (doi:10.1016/j.jct.2012.09.004):

What was measured:
[1] = Pendant drop shape
[2] = refractive index (Na D-line) (dimensionless); conditions: 101.33 kPa, Liquid, Standard Abbe refractometry
[3] = wn = mass fraction of the nth substance listed; conditions: Pendant drop shape
[4] = refractive index (Na D-line) (dimensionless); wn = mass fraction of the nth substance listed; conditions: 101 kPa, Liquid, Standard Abbe refractometry

CCCCCCCCCCCCCC[P+](CCCCCC)(CCCCCC)CCCCCC.[Cl-] [trihexyl(tetradecyl)phosphonium chloride]
Conditions | refractive index | surface tension liquid-gas [mN/m]
[1], 298.6 K | – | 30.6
[1], 308 K | – | 30.1
[1], 318 K | – | 29.3
[1], 328.1 K | – | 28.6
[1], 338.3 K | – | 27.8
[1], 343.3 K | – | 27.5
[2], 283.15 K | 1.48794 | –
[2], 288.15 K | 1.48635 | –
[2], 293.15 K | 1.48471 | –
[2], 298.15 K | 1.48309 | –
[2], 303.15 K | 1.48142 | –
[2], 308.15 K | 1.47973 | –
[2], 313.15 K | 1.47796 | –
[2], 318.15 K | 1.4757 | –
[2], 323.15 K | 1.47387 | –
[2], 328.15 K | 1.4721 | –
[2], 333.15 K | 1.47029 | –
[2], 338.15 K | 1.46854 | –
[2], 343.15 K | 1.46677 | –
[2], 348.15 K | 1.46504 | –
[2], 353.15 K | 1.4634 | –

CCCCCCCCCCCCCC[P+](CCCCCC)(CCCCCC)CCCCCC.[Cl-] [trihexyl(tetradecyl)phosphonium chloride] + O
w2 = 0.1334
Conditions | refractive index | surface tension liquid-gas [mN/m]
[3], 298.6 K | – | 30.81
[3], 308 K | – | 30.01
[3], 318.3 K | – | 29.2
[3], 328.7 K | – | 28.45
[3], 342.7 K | – | 27.43
[4], 298.15 K | 1.46283 | –
[4], 303.15 K | 1.46133 | –
[4], 308.15 K | 1.45953 | –
[4], 313.15 K | 1.45768 | –
[4], 318.15 K | 1.45595 | –
[4], 323.15 K | 1.45425 | –
[4], 328.15 K | 1.45266 | –
[4], 333.15 K | 1.45124 | –
[4], 338.15 K | 1.44998 | –
[4], 343.15 K | 1.44892 | –
[4], 348.15 K | 1.44798 | –
[4], 353.15 K | 1.4471 | –

CCCCCCCCCC(=O)[O-].CCCCCCCCCCCCCC[P+](CCCCCC)(CCCCCC)CCCCCC [trihexyltetradecylphosphonium decanoate] + O
w2 = 0.1526
Conditions | refractive index | surface tension liquid-gas [mN/m]
[3], 298.4 K | – | 29.1
[3], 307.7 K | – | 28.5
[3], 318 K | – | 27.7
[3], 328.9 K | – | 26.8
[3], 339.2 K | – | 26
[3], 344.3 K | – | 25.6
[4], 298.15 K | 1.45342 | –
[4], 303.15 K | 1.45194 | –
[4], 308.15 K | 1.45041 | –
[4], 313.15 K | 1.44877 | –
[4], 318.15 K | 1.44699 | –
[4], 323.15 K | 1.44498 | –
[4], 328.15 K | 1.4431 | –
[4], 333.15 K | 1.44129 | –
[4], 338.15 K | 1.43948 | –
[4], 343.15 K | 1.43763 | –
[4], 348.15 K | 1.43579 | –
[4], 353.15 K | 1.43397 | –

CCCCCCCCCCCCCC[P+](CCCCCC)(CCCCCC)CCCCCC.O=S(=O)([N-]S(=O)(=O)C(F)(F)F)C(F)(F)F
Conditions | refractive index | surface tension liquid-gas [mN/m]
[1], 298.2 K | – | 30.1
[1], 307.9 K | – | 29.5
[1], 317.9 K | – | 28.7
[1], 327.9 K | – | 28.1
[1], 337.8 K | – | 27.5
[1], 343.2 K | – | 27.3
[2], 283.15 K | 1.45436 | –
[2], 288.15 K | 1.45279 | –
[2], 293.15 K | 1.4512 | –
[2], 298.15 K | 1.4496 | –
[2], 303.15 K | 1.44797 | –
[2], 308.15 K | 1.44637 | –
[2], 313.15 K | 1.44476 | –
[2], 318.15 K | 1.44317 | –
[2], 323.15 K | 1.44158 | –
[2], 328.15 K | 1.43948 | –
[2], 333.15 K | 1.43836 | –
[2], 338.15 K | 1.43681 | –
[2], 343.15 K | 1.43524 | –
[2], 348.15 K | 1.4337 | –
[2], 353.15 K | 1.43213 | –

CCCCCCCCCCCCCC[P+](CCCCCC)(CCCCCC)CCCCCC.CS(=O)(=O)[O-] [trihexyltetradecylphosphonium methanesulfonate]
Conditions | refractive index | surface tension liquid-gas [mN/m]
[1], 298.3 K | – | 31
[1], 308 K | – | 30.3
[1], 318.5 K | – | 29.6
[1], 328.8 K | – | 28.8
[1], 338.7 K | – | 28.2
[1], 343.5 K | – | 27.9
[2], 283.15 K | 1.47813 | –
[2], 288.15 K | 1.47668 | –
[2], 293.15 K | 1.47507 | –
[2], 298.15 K | 1.47346 | –
[2], 303.15 K | 1.47186 | –
[2], 308.15 K | 1.47025 | –
[2], 313.15 K | 1.46865 | –
[2], 318.15 K | 1.46702 | –
[2], 323.15 K | 1.4654 | –
[2], 328.15 K | 1.4638 | –
[2], 333.15 K | 1.46217 | –
[2], 338.15 K | 1.46053 | –
[2], 343.15 K | 1.45895 | –
[2], 348.15 K | 1.45727 | –
[2], 353.15 K | 1.45572 | –

CC(CC(C)(C)C)CP(=O)([O-])CC(C)CC(C)(C)C.CCCCCCCCCCCCCC[P+](CCCCCC)(CCCCCC)CCCCCC + O
w2 = 0.158
Conditions | refractive index | surface tension liquid-gas [mN/m]
[3], 297.9 K | – | 28.32
[3], 307.9 K | – | 27.7
[3], 317.9 K | – | 27.24
[3], 328.8 K | – | 26.41
[3], 339 K | – | 25.6
[3], 343.4 K | – | 25.34
[4], 298.15 K | 1.45864 | –
[4], 303.15 K | 1.45697 | –
[4], 308.15 K | 1.45534 | –
[4], 313.15 K | 1.45363 | –
[4], 318.15 K | 1.45192 | –
[4], 323.15 K | 1.45019 | –
[4], 328.15 K | 1.44849 | –
[4], 333.15 K | 1.44683 | –
[4], 338.15 K | 1.44523 | –
[4], 343.15 K | 1.44374 | –
[4], 348.15 K | 1.4424 | –
[4], 353.15 K | 1.44126 | –

CCCCCCCCCCCCCC[P+](CCCCCC)(CCCCCC)CCCCCC.[Br-] [tetradecyltrihexylphosphonium bromide]
Conditions | refractive index | surface tension liquid-gas [mN/m]
[1], 298.2 K | – | 30.9
[1], 308.5 K | – | 30.2
[1], 318 K | – | 29.6
[1], 328.8 K | – | 28.7
[1], 338.6 K | – | 28.1
[1], 343.4 K | – | 27.9
[2], 283.15 K | 1.49456 | –
[2], 288.15 K | 1.49295 | –
[2], 293.15 K | 1.49139 | –
[2], 298.15 K | 1.48977 | –
[2], 303.15 K | 1.48814 | –
[2], 308.15 K | 1.48654 | –
[2], 313.15 K | 1.4849 | –
[2], 318.15 K | 1.4833 | –
[2], 323.15 K | 1.48167 | –
[2], 328.15 K | 1.47999 | –
[2], 333.15 K | 1.47834 | –
[2], 338.15 K | 1.47677 | –
[2], 343.15 K | 1.47511 | –
[2], 348.15 K | 1.47346 | –
[2], 353.15 K | 1.47189 | –
